Experimental data as given in ChEMBL document CHEMBL1909281, “FDA-approved drug labeling for the study of drug-induced liver injury” (Drug Discov Today, 2011).

Tests used:
[1] = tested on: Hepatotoxicity
[2] = tested on: Hepatotoxicity; assay: FDA Liver Toxicity Knowledge Base Benchmark Dataset (LTKB-BD) drugs of most concern for DILI

Molecule	LTKB_BD DILI severity score [1]	also measured
CCC1(c2ccccc2)C(=O)NC(=O)NC1=O [PHENOBARBITAL]	3	
CO[C@H]1/C=C/O[C@@]2(C)Oc3c(C)c(O)c4c(O)c(c(/C=N/N5CCN(C)CC5)c(O)c4c3C2=O)NC(=O)/C(C)=C\C=C\[C@H](C)[C@H](O)[C@@H](C)[C@@H](O)[C@@H](C)[C@H](OC(C)=O)[C@@H]1C [RIFAMPIN]		LTKB_BD DILI severity score [2]: 8
Cc1ccnc2c1NC(=O)c1cccnc1N2C1CC1 [NEVIRAPINE]		LTKB_BD DILI severity score [2]: 8
CC1=C(/C=C/C(C)=C/C=C/C(C)=C\C(=O)O)C(C)(C)CCC1 [ISOTRETINOIN]	2	
Sc1ncnc2nc[nH]c12 [MERCAPTOPURINE ANHYDROUS]		LTKB_BD DILI severity score ([2]; Liver): 8
NC(=O)NO [HYDROXYUREA]		LTKB_BD DILI severity score [2]: 8
COc1cc(C)c(/C=C/C(C)=C/C=C/C(C)=C/C(=O)O)c(C)c1C [ACITRETIN]		LTKB_BD DILI severity score [2]: 5
O=P1(NCCCl)OCCCN1CCCl (stereo not drawn) [IFOSFAMIDE]	4	
CN1C(C(=O)Nc2ccccn2)=C(O)c2ccccc2S1(=O)=O [PIROXICAM]	3	
Oc1ncnc2[nH]ncc12 [ALLOPURINOL]	3	
O=c1n(CCCN2CCN(c3cccc(Cl)c3)CC2)nc2ccccn12 [TRAZODONE]	5	
Clc1cccc(Cl)c1N=C1NCCN1 [CLONIDINE]		LTKB_BD DILI severity score ([1]; Liver): 3
CC(C(=O)O)c1ccc(-c2ccccc2)c(F)c1 (stereo not drawn) [FLURBIPROFEN]	3	
COC(=O)C1=C(C)NC(C)=C(C(=O)OC)C1c1ccccc1[N+](=O)[O-] [NIFEDIPINE]	3	
CARBOPLATIN	3	
Cc1ccc(C)c(OCCCC(C)(C)C(=O)O)c1 [GEMFIBROZIL]	3	
C=CC[C@@H]1/C=C(\C)C[C@H](C)C[C@H](OC)[C@H]2O[C@@](O)(C(=O)C(=O)N3CCCC[C@H]3C(=O)O[C@H](/C(C)=C/[C@@H]3CC[C@@H](O)[C@H](OC)C3)[C@H](C)[C@@H](O)CC1=O)[C@H](C)C[C@@H]2OC [TACROLIMUS ANHYDROUS]	5	
Nc1nc2c(ncn2COCCO)c(=O)[nH]1 [ACYCLOVIR]	5	
COC(=O)Nc1nc2ccc(C(=O)c3ccccc3)cc2[nH]1 [MEBENDAZOLE]	3	
Fc1ccc([C@@H]2CCNC[C@H]2COc2ccc3c(c2)OCO3)cc1 [PAROXETINE]	8	
CN(C)[C@@H]1C(O)=C(C(N)=O)C(=O)[C@@]2(O)C(O)=C3C(=O)c4c(O)cccc4[C@@](C)(O)[C@H]3[C@H](O)[C@@H]12 [OXYTETRACYCLINE]	2	

Molecule	LTKB_BD DILI severity score [1]	also measured
CN(C)CCOc1ccc(/C(=C(/CCCl)c2ccccc2)c2ccccc2)cc1 [TOREMIFENE]	3	
Cc1cccc(C)c1OCC(C)N (stereo not drawn) [MEXILETINE]		LTKB_BD DILI severity score ([1]; Liver): 3
CN(C)[C@@H]1C(O)=C(C(N)=O)C(=O)[C@@]2(O)C(O)=C3C(=O)c4c(O)cccc4[C@@](C)(O)[C@H]3C[C@@H]12 [TETRACYCLINE]	2	
CNC(=C[N+](=O)[O-])NCCSCc1csc(CN(C)C)n1 [NIZATIDINE]	5	
CC(C)OC(=O)C(C)(C)Oc1ccc(C(=O)c2ccc(Cl)cc2)cc1 [FENOFIBRATE]	3	
C[C@@H]1C[C@H]2[C@@H]3CCC4=CC(=O)C=C[C@]4(C)[C@@]3(F)[C@@H](O)C[C@]2(C)[C@@]1(O)C(=O)CO [DEXAMETHASONE]	3	
C[C@]12C=CC(=O)C=C1CC[C@@H]1[C@@H]2[C@@H](O)C[C@@]2(C)[C@H]1CC[C@]2(O)C(=O)CO [PREDNISOLONE]	3	
CC(C)(C)NC(=O)[C@@H]1C[C@@H]2CCCC[C@@H]2CN1C[C@@H](O)[C@H](Cc1ccccc1)NC(=O)[C@H](CC(N)=O)NC(=O)c1ccc2ccccc2n1		LTKB_BD DILI severity score ([1]; Liver): 3
CC1(C)S[C@@H]2[C@H](NC(=O)[C@H](N)c3ccc(O)cc3)C(=O)N2[C@H]1C(=O)O [AMOXICILLIN]	3	
O=NN(CCCl)C(=O)NCCCl [CARMUSTINE]	3	
CCCNC(=O)NS(=O)(=O)c1ccc(Cl)cc1 [CHLORPROPAMIDE]	2	
CC(=O)CC(c1ccccc1)c1c(O)c2ccccc2oc1=O (stereo not drawn) [WARFARIN]	5	
CCc1ccc(CCOc2ccc(CC3SC(=O)NC3=O)cc2)nc1 (stereo not drawn) [PIOGLITAZONE]	3	
CC(C)NCC(O)COc1ccc(COCCOC(C)C)cc1 (stereo not drawn) [BISOPROLOL]	3	
CNC(=C[N+](=O)[O-])NCCSCc1ccc(CN(C)C)o1 [RANITIDINE]	5	
O[C@@H]1CO[C@H]2[C@@H]1OC[C@@H]2O [ISOSORBIDE]	3	
COc1ccc2c(c1)c(CC(=O)O)c(C)n2C(=O)c1ccc(Cl)cc1 [INDOMETHACIN]	3	
CC(NC(C)(C)C)C(=O)c1cccc(Cl)c1 (stereo not drawn) [BUPROPION]	5	
Clc1ccccc1C(c1ccccc1)(c1ccccc1)n1ccnc1 [CLOTRIMAZOLE]	3	
O=C1CC2(CCCC2)CC(=O)N1CCCCN1CCN(c2ncccn2)CC1 [BUSPIRONE]	3	
CC(C)(S)[C@@H](N)C(=O)O [PENICILLAMINE]	3	

Molecule	LTKB_BD DILI severity score [1]	also measured
CN(C)CCCN1c2ccccc2Sc2ccc(Cl)cc21 [CHLORPROMAZINE]	2	
CNCCC(Oc1ccc(C(F)(F)F)cc1)c1ccccc1 (stereo not drawn) [FLUOXETINE]	3	
CC(C)(O)c1ccccc1CC[C@@H](SCC1(CC(=O)O)CC1)c1cccc(/C=C/c2ccc3ccc(Cl)cc3n2)c1 [MONTELUKAST]	3	
CNCCCN1c2ccccc2CCc2ccccc21 [DESIPRAMINE]		LTKB_BD DILI severity score ([1]; Liver): 3
NC(=O)c1cnccn1 [PYRAZINAMIDE]	3	
COc1ccc2cc([C@H](C)C(=O)O)ccc2c1 [NAPROXEN]		LTKB_BD DILI severity score ([1]; Liver): 3
CNCCCC12CCC(c3ccccc31)c1ccccc12 [MAPROTILINE]		LTKB_BD DILI severity score ([1]; Liver): 5
CCOC(=O)C(C)(C)Oc1ccc(Cl)cc1 [CLOFIBRATE]	3	
CN(C)CCCN1c2ccccc2CCc2ccccc21 [IMIPRAMINE]	3	
NC(=O)c1ncn([C@@H]2O[C@H](CO)[C@@H](O)[C@H]2O)n1 [RIBAVIRIN]	7	
CC[C@H](C)C(=O)O[C@H]1C[C@H](O)C=C2C=C[C@H](C)[C@H](CC[C@@H](O)C[C@@H](O)CC(=O)O)[C@H]21 [PRAVASTATIN]	3	
NC(N)=Nc1nc(CSCCC(N)=NS(N)(=O)=O)cs1 [FAMOTIDINE]		LTKB_BD DILI severity score ([1]; Liver): 3
CCC1=C(C)CN(C(=O)NCCc2ccc(S(=O)(=O)NC(=O)N[C@H]3CC[C@H](C)CC3)cc2)C1=O [GLIMEPIRIDE]	7	
Cn1cnc([N+](=O)[O-])c1Sc1ncnc2nc[nH]c12 [AZATHIOPRINE]		LTKB_BD DILI severity score ([1]; Liver): 3
Nc1nc(O)c2ncn(COC(CO)CO)c2n1 [GANCICLOVIR]	7	
C[C@H](CS)C(=O)N1CCC[C@H]1C(=O)O [CAPTOPRIL]	6	
COC1=CC(=O)C[C@@H](C)[C@]12Oc1c(Cl)c(OC)cc(OC)c1C2=O [GRISEOFULVIN]	3	
COc1ccc(C(CN(C)C)C2(O)CCCCC2)cc1 (stereo not drawn) [VENLAFAXINE]	7	
C[C@H]1c2cccc(O)c2C(=O)C2=C(O)[C@]3(O)C(=O)C(C(N)=O)=C(O)[C@@H](N(C)C)[C@@H]3[C@@H](O)[C@@H]21.O [DOXYCYCLINE]	3	
CCOC(=O)C1=C[C@@H](OC(CC)CC)[C@H](NC(C)=O)[C@@H](N)C1 [OSELTAMIVIR]	3	
NC12CC3CC(CC(C3)C1)C2 [AMANTADINE]	3	

Molecule	LTKB_BD DILI severity score [1]	also measured
CC(C)Cc1ccc(C(C)C(=O)O)cc1 (stereo not drawn) [IBUPROFEN]	3	
CN1CCN(C2=Nc3cc(Cl)ccc3Nc3ccccc32)CC1 [CLOZAPINE]	2	
CCN(CC)CCCC(C)Nc1ccnc2cc(Cl)ccc12 (stereo not drawn) [CHLOROQUINE]	3	
CCOC(=O)[C@H](CCc1ccccc1)N[C@@H](C)C(=O)N1CCC[C@H]1C(=O)O	4	
C[C@]12CC[C@@H]3c4ccc(O)cc4CC[C@H]3[C@@H]1CC[C@@H]2O [ESTRADIOL]	2	
COCCc1ccc(OCC(O)CNC(C)C)cc1 (stereo not drawn) [METOPROLOL]	5	
CN(C)c1nc(N(C)C)nc(N(C)C)n1 [ALTRETAMINE]	2	
O=C([O-])c1cc(=O)c2c(OCC(O)COc3cccc4oc(C(=O)[O-])cc(=O)c34)cccc2o1.[Na+].[Na+] [CROMOLYN SODIUM]	3	
CC(C)NCC(O)COc1cccc2ccccc12 (stereo not drawn) [PROPRANOLOL]	3	
C=C(CC)C(=O)c1ccc(OCC(=O)O)c(Cl)c1Cl [ETHACRYNIC ACID]	5	
O=C(c1ccccc1)c1ccc2n1CCC2C(=O)O (stereo not drawn) [KETOROLAC]	3	
O=C1NC(=O)C(c2ccccc2)(c2ccccc2)N1 [PHENYTOIN]		LTKB_BD DILI severity score ([1]; Liver): 3
CN/C(=N/CCSCc1nc[nH]c1C)NC#N [CIMETIDINE]		LTKB_BD DILI severity score ([1]; Liver): 2
COc1cc2c(c(OC)c1OC)-c1ccc(OC)c(=O)cc1[C@@H](NC(C)=O)CC2 [COLCHICINE]	6	
CN1CCN(CCCN2c3ccccc3Sc3ccc(C(F)(F)F)cc32)CC1 [TRIFLUOPERAZINE]	2	
O=C(CCCN1CCC(O)(c2ccc(Cl)cc2)CC1)c1ccc(F)cc1 [HALOPERIDOL]	5	
CN[C@H]1CC[C@@H](c2ccc(Cl)c(Cl)c2)c2ccccc21 [SERTRALINE]		LTKB_BD DILI severity score ([1]; Liver): 3
CC(=O)S[C@@H]1CC2=CC(=O)CC[C@]2(C)[C@H]2CC[C@@]3(C)[C@@H](CC[C@@]34CCC(=O)O4)[C@H]12 [SPIRONOLACTONE]	2	
O=P1(N(CCCl)CCCl)NCCCO1 (stereo not drawn) [CYCLOPHOSPHAMIDE ANHYDROUS]		LTKB_BD DILI severity score ([1]; Liver): 5
CN(C)c1ccc(O)c2c1C[C@H]1C[C@H]3[C@H](N(C)C)C(O)=C(C(N)=O)C(=O)[C@@]3(O)C(O)=C1C2=O [MINOCYCLINE]	2	
